Laboratory results: ChEMBL document CHEMBL4184292, “Synthetic strigolactone analogues reveal anti-cancer activities on hepatocellular carcinoma cells” (Bioorg Med Chem Lett, 2018)
Active and inactive are the calls of the source. No cut-off for these calls is given here.

Columns and labels:
[1] = test system: HepG2; assay: Cytotoxicity against human HepG2 cells assessed as reduction in cell viability at 80 uM after 24 hrs by WST1 assay relative to control; type: functional
[2] = test system: HepG2; assay: Cytotoxicity against human HepG2 cells assessed as reduction in cell viability at 40 uM after 24 hrs by WST1 assay; type: functional, cell-based
[3] = test system: HepG2; assay: Cytotoxicity against human HepG2 cells assessed as reduction in cell viability after 24 hrs by WST1 assay; type: functional, cell-based; conditions: for IC50: HepG2, 24 h
[4] = Cytotoxicity against BHK cells assessed as reduction in cell viability at 80 uM after 48 hrs by WST1 assay relative to control; type: cell-based, Mesocricetus auratus; conditions: hamster
[5] = test system: PC-3; assay: Cytotoxicity against human PC3 cells assessed as reduction in cell viability after 24 hrs by WST1 assay; type: functional, cell-based; conditions: for IC50: PC-3, 24 h
[6] = test system: Jurkat; assay: Cytotoxicity against human Jurkat cells assessed as reduction in cell viability after 24 hrs by WST1 assay; type: functional, cell-based
[7] = test system: HepG2; assay: Cytotoxicity against human HepG2 cells assessed as reduction in cell viability at 80 uM by WST1 assay; type: functional, cell-based; conditions: TDE = time-dependent effect
[8] = test system: HepG2; assay: Cytotoxicity against human HepG2 cells assessed as reduction in cell viability at 80 uM after 4 hrs by WST1 assay relative to control; type: functional
[9] = test system: HepG2; assay: Cytotoxicity against human HepG2 cells assessed as reduction in cell viability at 80 uM after 8 hrs by WST1 assay relative to control; type: functional
[10] = test system: HepG2; assay: Cytotoxicity against human HepG2 cells assessed as reduction in cell viability at 80 uM after 12 hrs by WST1 assay relative to control; type: functional
[11] = test system: HepG2; assay: Induction of apoptosis in human HepG2 cells assessed as early apoptotic cells at 20 uM after 24 hrs by Annexin-V/7AAD staining based flow cytometry (reference value: 5.1 to 12.5 %); type: functional
[12] = test system: HepG2; assay: Induction of apoptosis in human HepG2 cells assessed as late apoptotic cells at 20 uM after 24 hrs by Annexin-V/7AAD staining based flow cytometry (reference value: 0.2 to 0.4%); type: functional
[13] = test system: HepG2; assay: Induction of apoptosis in human HepG2 cells assessed as early apoptotic cells at 40 uM after 24 hrs by Annexin-V/7AAD staining based flow cytometry (reference value: 5.1 to 12.5 %); type: functional
[14] = test system: HepG2; assay: Induction of apoptosis in human HepG2 cells assessed as late apoptotic cells at 40 uM after 24 hrs by Annexin-V/7AAD staining based flow cytometry (reference value: 0.2 to 0.4%); type: functional
[15] = test system: HepG2; assay: Induction of apoptosis in human HepG2 cells assessed as early apoptotic cells at 60 uM after 24 hrs by Annexin-V/7AAD staining based flow cytometry (reference value: 5.1 to 12.5 %); type: functional
[16] = test system: HepG2; assay: Induction of apoptosis in human HepG2 cells assessed as late apoptotic cells at 60 uM after 24 hrs by Annexin-V/7AAD staining based flow cytometry (reference value: 0.2 to 0.4%); type: functional
[17] = test system: HepG2; assay: Induction of apoptosis in human HepG2 cells assessed as early apoptotic cells at 80 uM after 24 hrs by Annexin-V/7AAD staining based flow cytometry (reference value: 5.1 to 12.5 %); type: functional
[18] = test system: HepG2; assay: Induction of apoptosis in human HepG2 cells assessed as late apoptotic cells at 80 uM after 24 hrs by Annexin-V/7AAD staining based flow cytometry (reference value: 0.2 to 0.4%); type: functional
[19] = test system: HepG2; assay: Induction of apoptosis in human HepG2 cells assessed as early apoptotic cells at 80 uM after 2 hrs by Annexin-V/7AAD staining based flow cytometry (reference value: 3.8 to 4.2 %); type: functional
[20] = test system: HepG2; assay: Induction of apoptosis in human HepG2 cells assessed as late apoptotic cells at 80 uM after 2 hrs by Annexin-V/7AAD staining based flow cytometry (reference value: 0.2 to 0.7 %); type: functional
[21] = test system: HepG2; assay: Induction of apoptosis in human HepG2 cells assessed as early apoptotic cells at 80 uM after 6 hrs by Annexin-V/7AAD staining based flow cytometry (reference value: 3.8 to 4.2 %); type: functional
[22] = test system: HepG2; assay: Induction of apoptosis in human HepG2 cells assessed as late apoptotic cells at 80 uM after 6 hrs by Annexin-V/7AAD staining based flow cytometry (reference value: 0.2 to 0.7 %); type: functional
[23] = test system: HepG2; assay: Antimigratory activity in human HepG2 cells at 80 uM after 24 hrs by wound-scratch assay; type: functional, cell-based
[24] = test system: HepG2; assay: Antimigratory activity in human HepG2 cells at 100 uM after 24 hrs by wound-scratch assay; type: functional, cell-based
[25] = test system: HepG2; assay: Growth inhibition of human HepG2 cells at 100 uM after 24 hrs; type: functional, cell-based

COC(=O)/C(=C/OC1C=C(C)C(=O)O1)c1ccc(Cl)cc1 (stereo not drawn)
Activity [1]: 61 - 61.4%
Activity [2]: Active
Activity [3]: Dose-dependent effect
IC50 [3]: 67.8 µM
Activity [4]: 23%
Activity [5]: Dose-dependent effect
IC50 [5]: 56.6 µM
Activity [6]: Dose-dependent effect
IC50 [6]: 44.7 µM
Activity [7]: Tde
Activity [8]: 11%
Activity [9]: 19%
Activity [10]: 26%
Activity [11]: 9.5%
Activity [12]: 0.2%
Activity [13]: 11.3%
Activity [14]: 0.4%
Activity [15]: 16.1%
Activity [16]: 0.5%
Activity [17]: 20.9%
Activity [18]: 0.5%
Activity [19]: 4.3%
Activity [20]: 0.9%
Activity [21]: 13.7%
Activity [22]: 1.5%
Activity [23]: Active

CC1=CC(Oc2ccc(Cl)c(Cl)c2)OC1=O (stereo not drawn)
Activity [1]: 43.5%
Activity [2]: Active
IC50 [3]: 85.9 µM

CC1=CC(Oc2cc(Cl)cc(Cl)c2)OC1=O (stereo not drawn)
Activity [1]: 40.7%
IC50 [3]: 89.5 µM

CC1=CC(Oc2ccc(F)cc2Br)OC1=O (stereo not drawn)
Activity [1]: 39%
IC50 [3]: 90.3 µM

COC(=O)/C(=C/OC1C=C(C)C(=O)O1)c1ccccc1 (stereo not drawn)
Activity [1]: 63.4 - 73%
Activity [3]: Dose-dependent effect
IC50 [3]: 63.5 µM
Activity [4]: 18%
Activity [5]: Dose-dependent effect
IC50 [5]: 55.1 µM
Activity [6]: Dose-dependent effect
IC50 [6]: 46.4 µM
Activity [7]: Tde
Activity [8]: 13%
Activity [9]: 20%
Activity [10]: 31%
Activity [11]: 9.5%
Activity [12]: 0.2%
Activity [13]: 13.1%
Activity [14]: 0.2%
Activity [15]: 18.5%
Activity [16]: 0.4%
Activity [17]: 26.6%
Activity [18]: 0.2%
Activity [19]: 3.8%
Activity [20]: 1.7%
Activity [21]: 13.3%
Activity [22]: 1.2%
Activity [23]: Active

COC(=O)/C(=C/OC1C=C(C)C(=O)O1)c1ccc(OC)cc1 (stereo not drawn)
Activity [1]: 50.1%
Activity [2]: Active
IC50 [3]: 82.1 µM
Activity [4]: 33%

CC1=CC(=O)C(C(C)C)=CC1=O [THYMOQUINONE]
Activity [17]: 91.8%
Activity [18]: 3.3%
Activity [24]: Active
growth inhibition (GI) [25]: Active

CC1=CC(Oc2c(Br)cccc2C#N)OC1=O (stereo not drawn)
Activity [1]: 43.8%
IC50 [3]: 87.6 µM
